Assay results reported in article PMC9742833.
Counter-ions that a name gives are not always drawn.

How the values were obtained:
[1] = from 36.1 to 59.2 g of khat chewed, mean ± SD; cited from earlier work
[2] = target: T1, CYP2E1 (Homo sapiens, UniProt P05181); test: Time-dependent inhibition (IC50 shift, NADPH pre-incubation); type: biochemical; set-up: purchased Life Technologies
Method: (§1) The procedure followed was similar to that used for screening of CYP reversible inhibition as mentioned above but with slight modifications. The master premix was added with NADP^+ to produce NADPH before the pre-incubation. The mixture was incubated for 30 min with shaking under similar range of concentrations of cathinone as mentioned above for IC50 determination. […] The IC50 shift was derived by calculating ratios of IC50 obtained from pre-incubation with and without NADPH. An IC50 shift ratio of more than 2 signifies irreversible time-dependent inhibition.

[3] = target: T2, CYP3A5 (Homo sapiens, UniProt P20815); test: as above; type: biochemical; set-up: purchased Life Technologies
T2 sequence (P20815 whole entry): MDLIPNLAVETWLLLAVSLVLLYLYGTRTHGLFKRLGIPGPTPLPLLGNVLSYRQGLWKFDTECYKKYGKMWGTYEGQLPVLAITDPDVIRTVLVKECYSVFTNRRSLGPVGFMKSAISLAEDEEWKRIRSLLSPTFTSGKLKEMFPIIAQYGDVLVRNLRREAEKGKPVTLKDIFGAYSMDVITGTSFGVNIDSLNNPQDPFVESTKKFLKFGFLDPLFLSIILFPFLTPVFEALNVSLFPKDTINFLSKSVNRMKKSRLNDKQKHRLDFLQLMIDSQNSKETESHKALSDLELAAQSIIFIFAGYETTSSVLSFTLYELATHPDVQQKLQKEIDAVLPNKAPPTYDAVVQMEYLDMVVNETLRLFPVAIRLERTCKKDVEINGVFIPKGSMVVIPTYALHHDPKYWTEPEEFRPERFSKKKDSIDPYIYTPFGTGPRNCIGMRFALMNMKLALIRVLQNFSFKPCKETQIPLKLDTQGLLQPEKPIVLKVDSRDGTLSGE
Method: as §1

[4] = target: T3, CYP1A2 (Homo sapiens, UniProt P05177); test: as above; type: biochemical; set-up: purchased Life Technologies
T3 sequence (P05177 2-516 limits assumed): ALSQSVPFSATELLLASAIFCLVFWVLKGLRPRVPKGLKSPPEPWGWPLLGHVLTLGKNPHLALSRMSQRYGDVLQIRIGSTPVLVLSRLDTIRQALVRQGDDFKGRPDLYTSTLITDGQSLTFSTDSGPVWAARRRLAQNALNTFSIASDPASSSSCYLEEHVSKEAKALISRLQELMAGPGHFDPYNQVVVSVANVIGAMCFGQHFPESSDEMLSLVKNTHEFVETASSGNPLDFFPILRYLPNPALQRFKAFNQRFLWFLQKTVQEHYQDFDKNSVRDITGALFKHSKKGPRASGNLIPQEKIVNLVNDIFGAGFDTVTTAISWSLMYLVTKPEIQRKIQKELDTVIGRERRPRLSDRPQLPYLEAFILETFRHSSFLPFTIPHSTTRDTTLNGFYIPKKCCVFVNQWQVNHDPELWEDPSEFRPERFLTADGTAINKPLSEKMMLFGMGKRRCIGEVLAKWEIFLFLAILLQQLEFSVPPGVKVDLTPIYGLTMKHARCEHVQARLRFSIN
Method: as §1

[5] = target: T4, CYP2A6 (Homo sapiens, UniProt P11509); test: as above; type: biochemical; set-up: purchased Life Technologies
T4 sequence (P11509 1-494): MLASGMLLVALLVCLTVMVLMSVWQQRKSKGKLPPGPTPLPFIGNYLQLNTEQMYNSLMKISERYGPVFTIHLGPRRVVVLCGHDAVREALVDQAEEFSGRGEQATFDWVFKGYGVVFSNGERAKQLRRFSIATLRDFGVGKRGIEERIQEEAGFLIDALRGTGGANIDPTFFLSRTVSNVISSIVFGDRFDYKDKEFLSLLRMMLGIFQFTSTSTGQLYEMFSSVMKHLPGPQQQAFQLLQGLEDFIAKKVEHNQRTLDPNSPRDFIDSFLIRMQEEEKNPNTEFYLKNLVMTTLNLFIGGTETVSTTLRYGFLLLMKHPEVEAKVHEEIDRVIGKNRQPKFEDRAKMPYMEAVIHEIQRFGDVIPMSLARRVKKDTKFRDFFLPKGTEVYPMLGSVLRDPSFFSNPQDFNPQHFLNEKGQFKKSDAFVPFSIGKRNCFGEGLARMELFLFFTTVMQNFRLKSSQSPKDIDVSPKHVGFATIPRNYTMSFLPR
Method: as §1

[6] = target: T5, CYP2J2 (Homo sapiens, UniProt P51589); test: as above; type: biochemical; set-up: purchased Life Technologies
T5 sequence (P51589 1-502): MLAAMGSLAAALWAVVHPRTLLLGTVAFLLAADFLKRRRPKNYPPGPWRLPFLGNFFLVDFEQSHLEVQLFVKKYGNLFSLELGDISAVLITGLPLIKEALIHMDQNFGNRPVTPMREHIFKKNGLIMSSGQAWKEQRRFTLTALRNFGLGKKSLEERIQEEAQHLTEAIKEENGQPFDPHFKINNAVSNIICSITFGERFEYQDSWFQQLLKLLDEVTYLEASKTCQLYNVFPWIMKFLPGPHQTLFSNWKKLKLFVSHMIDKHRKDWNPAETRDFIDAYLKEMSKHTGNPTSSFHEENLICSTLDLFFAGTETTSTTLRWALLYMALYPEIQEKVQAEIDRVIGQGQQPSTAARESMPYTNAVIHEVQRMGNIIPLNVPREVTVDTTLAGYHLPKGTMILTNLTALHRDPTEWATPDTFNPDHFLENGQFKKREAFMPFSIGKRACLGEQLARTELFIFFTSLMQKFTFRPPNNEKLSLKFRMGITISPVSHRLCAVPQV
Method: as §1

[7] = target: T6, CYP2B6 (Homo sapiens, UniProt P20813); test: as above; type: biochemical; set-up: purchased Life Technologies
T6 sequence (P20813 1-491): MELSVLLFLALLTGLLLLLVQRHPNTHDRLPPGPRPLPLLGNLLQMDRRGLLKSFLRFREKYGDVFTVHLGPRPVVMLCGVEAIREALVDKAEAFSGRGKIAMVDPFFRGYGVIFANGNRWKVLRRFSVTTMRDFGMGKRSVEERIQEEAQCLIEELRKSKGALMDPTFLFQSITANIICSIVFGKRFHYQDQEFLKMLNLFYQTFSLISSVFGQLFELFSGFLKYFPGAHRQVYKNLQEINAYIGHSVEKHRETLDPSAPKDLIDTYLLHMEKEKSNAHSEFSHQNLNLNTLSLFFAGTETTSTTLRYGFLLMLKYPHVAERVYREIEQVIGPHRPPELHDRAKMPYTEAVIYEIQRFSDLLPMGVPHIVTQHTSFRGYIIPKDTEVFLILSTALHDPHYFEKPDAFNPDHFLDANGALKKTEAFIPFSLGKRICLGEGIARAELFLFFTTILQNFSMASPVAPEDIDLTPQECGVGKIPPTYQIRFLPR
Method: as §1

[8] = target: T7, CYP2C19 (Homo sapiens, UniProt P33261); test: as above; type: biochemical; set-up: purchased Life Technologies
T7 sequence (P33261 whole entry): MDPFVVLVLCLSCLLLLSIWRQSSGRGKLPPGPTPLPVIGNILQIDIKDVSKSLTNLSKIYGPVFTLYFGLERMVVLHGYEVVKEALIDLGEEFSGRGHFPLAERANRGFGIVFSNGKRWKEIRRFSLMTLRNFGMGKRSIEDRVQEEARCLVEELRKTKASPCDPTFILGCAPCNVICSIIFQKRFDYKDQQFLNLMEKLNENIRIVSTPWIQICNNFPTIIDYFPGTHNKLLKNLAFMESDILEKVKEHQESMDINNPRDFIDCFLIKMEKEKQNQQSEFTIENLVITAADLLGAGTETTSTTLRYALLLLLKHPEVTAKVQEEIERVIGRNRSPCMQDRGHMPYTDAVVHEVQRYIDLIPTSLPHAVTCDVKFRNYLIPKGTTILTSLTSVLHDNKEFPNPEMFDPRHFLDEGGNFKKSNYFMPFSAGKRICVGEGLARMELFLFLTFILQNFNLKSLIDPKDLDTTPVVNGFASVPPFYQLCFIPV
Method: as §1

[9] = tested on: T8, CYP2C8; test: as above; type: biochemical, human; settings: CYP2C8 (stated for all 8 CYPs)
T8 construct: purchased Life Technologies
Method: as §1

[10] = target: T7, CYP2C19; test: Vivid CYP450 fluorescence assay, reversible inhibition
[11] = target: T3, CYP1A2; test: as above
[12] = target: T5, CYP2J2; test: as above
[13] = target: T2, CYP3A5; test: as above
[14] = tested on: CYP2C8; test: as above; settings: CYP2C8, substrate DBOMF, cathinone 0 to 1000 µM
[15] = target: T1, CYP2E1; test: as above
[16] = tested on: CYP3A4; settings: human CYP3A4, in vitro; cited from earlier work
[17] = tested on: CYP2D6; settings: human CYP2D6, in vitro; cited from earlier work
[18] = cited from earlier work
[19] = target: T4, CYP2A6; test: Vivid CYP450 fluorescence assay, reversible inhibition
[20] = tested on: CYP2C9; settings: human CYP2C9, in vitro; cited from earlier work
[21] = target: T6, CYP2B6; test: Vivid CYP450 fluorescence assay, reversible inhibition
[22] = cited from earlier work; remark: listed apart in the source

T1 sequence (P05181 whole entry): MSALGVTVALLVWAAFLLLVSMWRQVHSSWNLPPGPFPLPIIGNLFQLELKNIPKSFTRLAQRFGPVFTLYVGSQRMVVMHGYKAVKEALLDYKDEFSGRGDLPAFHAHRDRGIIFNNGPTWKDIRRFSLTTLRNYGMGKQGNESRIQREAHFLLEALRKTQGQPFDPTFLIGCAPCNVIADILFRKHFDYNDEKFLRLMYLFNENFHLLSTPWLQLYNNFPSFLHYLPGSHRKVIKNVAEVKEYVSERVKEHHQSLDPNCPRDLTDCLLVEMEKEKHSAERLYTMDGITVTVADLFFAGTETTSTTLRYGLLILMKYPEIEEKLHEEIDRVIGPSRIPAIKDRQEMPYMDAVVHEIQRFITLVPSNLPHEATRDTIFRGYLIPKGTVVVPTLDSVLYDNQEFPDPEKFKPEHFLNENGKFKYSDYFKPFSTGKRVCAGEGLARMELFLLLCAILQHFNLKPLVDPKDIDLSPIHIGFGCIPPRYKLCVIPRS

For C[C@H](N)[C@@H](O)c1ccccc1 [cathine, S,S-(+)-norpseudoephedrine], the “Cmax (maximal plasma concentration)” value [1] is listed as 71.2 ± 13.9 ng/mL and the absorbed [1] is listed as 84 ± 6%.

With C[C@H](N)C(=O)c1ccccc1 [Cathinone, (S)− 2-Amino-1-phenyl-1-propanone.hydrochloride] the IC50 [2] was 71.3 µM, the IC50 [3] was 11.1 µM and the IC50 [4] was 75.4 µM. For the same molecule, the IC50 [5] was 13.7 µM, the IC50 shift at 60 min ([5]; human, pH 8, probe Vivid CC (3-cyanocoumarin), CYP2A6, shift > 2 = significant TDI) was 0.84 and the IC50 [6] was 194 µM. The IC50 [7] was 110 µM, the IC50 [8] was 220 µM and the “time dependent inhibition (TDI) potency” value [9] was “no significant TDI potency”. For the same molecule, the IC50 [10] was 118 µM, the IC50 [11] was 17 µM and the Ki [11] was 57.1 µM. The mode of inhibition ([11]; CYP1A2) was “competitive”, the IC50 [12] was 163 µM and the IC50 [13] was 19.9 µM. The Ki [13] was 23.6 µM, the mode of inhibition ([13]; CYP3A5) was “noncompetitive” and the “inhibition of CYP2C8” value [14] was “no significant inhibition”. The IC50 [15] was 568 µM, the inhibitory effects [16] was “negligible inhibitory effects” and the “Cmax (maximal plasma concentration)” value [1] was 58.9 ± 18.8 ng/mL. For the same molecule, the absorbed [1] was 59 ± 21%, the inhibitory effects [17] was “negligible inhibitory effects” and the plasma level ([18]; at 0.5 and 7.5 h after the start of khat chewing) was “approximately 20 ng/ml”. The “maximum plasma levels (mean)” value ([18]; khat chewing) was 83 ng/mL, the IC50 [19] was 11.5 µM and the Ki [19] was 13.8 µM. The mode of inhibition ([19]; CYP2A6) was “un-competitive”, the inhibitory effects [20] was “negligible inhibitory effects” and the IC50 [21] was 165 µM. For the same molecule, the “area under the plasma concentration – time curve (AUC) from 0 to 9 h” value [22] was 415 ± 207 ng/ml per hour, the “time of maximal plasma concentration” value [22] was 127 ± 30 min and the maximal plasma concentration ([22]; khat leaves equivalent to 0.8 mg cathinone/kg body weight) was 127 ± 53 ng/mL. For the same molecule, the terminal elimination half-life ([22]; plasma) was 4.33 ± 1.7 h.
